The assay addresses Probable G-protein coupled receptor 34 (Homo sapiens, UniProt Q9UPC5). Kind of assay: Antagonist activity against human lung GPR34 expressed in CHO cells co-expressing Galpha116 assessed as inhibition of lysophosphatidyl serine-induced increase in intracellular calcium level pre-incubated before lysophosphatidyl serine addition and measured after 180 secs by Fluo 3-AM dye based fluorescent assay. It counts as functional, cell-based.

IC50 data for 29 compounds are collected here from ChEMBL document CHEMBL3714719, “Regulating agent of GPR34 receptor function” (2010).

Probable G-protein coupled receptor 34, sequence (Q9UPC5 whole entry): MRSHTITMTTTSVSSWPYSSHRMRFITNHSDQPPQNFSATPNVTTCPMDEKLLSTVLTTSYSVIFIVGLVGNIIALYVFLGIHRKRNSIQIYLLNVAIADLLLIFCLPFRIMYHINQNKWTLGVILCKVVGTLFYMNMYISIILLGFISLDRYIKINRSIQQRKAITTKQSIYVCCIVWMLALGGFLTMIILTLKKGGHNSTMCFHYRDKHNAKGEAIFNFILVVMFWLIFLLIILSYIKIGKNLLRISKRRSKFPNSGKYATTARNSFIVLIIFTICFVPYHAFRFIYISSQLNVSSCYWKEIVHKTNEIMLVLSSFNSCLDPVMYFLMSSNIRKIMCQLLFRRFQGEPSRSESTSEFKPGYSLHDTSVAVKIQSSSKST

As for `O=C(NC(Cc1ccc(OCc2ccccc2)cc1)C(=O)O)c1cn2cc(CCc3ccccc3)ccc2n1` (centres undefined), the IC50 was at most 1 µM.
As for `Cc1c(C(=O)N[C@@H](Cc2ccc(OCc3ccsc3)cc2)C(=O)O)oc2cc(-c3ccc(Cl)cc3)ccc12`, the IC50 was at most 1 µM.
Consider `O=C(Cc1ccc(Oc2ccccc2)cc1)NC1(C(=O)O)Cc2ccc(-c3ccc(Cl)cc3)cc2C1` (centres undefined), for which the half-inhibitory concentration (IC50) is at most 1 µM.
Turning to `O=C(Cc1ccc(OCc2ccccc2)cc1)NC1(C(=O)O)Cc2ccc(-c3ccc(Cl)cc3)cc2C1` (centres undefined), the IC50 was at most 1 µM.
As to `O=C(NC(Cc1ccc(OCc2ccc(F)cc2)cc1)C(=O)O)c1nc2cc(-c3ccc(Cl)cc3)ccc2[nH]1` (centres undefined), the IC50 is at most 1 µM.
The same measure for `O=C(O)CN(Cc1ccc(OCc2ccc(F)cc2)cc1)C(=O)c1cn2cc(-c3ccc(Cl)cc3)ccc2n1`: at most 1 µM.
The result for `O=C(NC(Cc1ccc(OCc2ccc(F)cc2)cc1)C(=O)O)c1cn2cc(-c3ccc(Cl)cc3)ccc2n1` (centres undefined) reads at most 1 µM.
The same measure for `O=C(Cc1ccc(Oc2nc3ccccc3s2)cc1)NC1(C(=O)O)Cc2ccc(-c3ccc(Cl)cc3)cc2C1` (centres undefined): at most 1 µM; for `Nc1cccc(COc2ccc(CC(=O)NC3(C(=O)O)Cc4ccc(-c5ccc(Cl)cc5)cc4C3)cc2)c1` (centres undefined): at most 1 µM; for `O=C(NC(Cc1ccc(OCc2ccccc2)cc1)c1nnn[nH]1)c1cn2cc(-c3ccc(Cl)cc3)ccc2n1` (centres undefined): at most 1 µM.
Turning to `O=C(NC(Cc1ccc(OCc2ccc(F)cc2)cc1)C(=O)O)c1cn2ccc(C#Cc3ccccc3)cc2n1` (centres undefined), the IC50 was at most 1 µM.
`Cc1c(C(=O)N[C@@H](Cc2ccc(OCc3ccccc3)cc2)C(=O)O)oc2cc(-c3ccc(Cl)cc3)ccc12`: the 50% inhibitory concentration (IC50) is at most 1 µM.
The same measure for `O=C(NC(Cc1ccc(OCc2ccccc2)cc1)c1nnn[nH]1)c1cn2nc(-c3ccc(Cl)cc3)ccc2n1` (centres undefined): at most 1 µM.
For `Cc1ccc(COc2ccc(CC(NC(=O)c3cc4ccc(-c5ccc(Cl)cc5)cc4o3)C(=O)O)cc2)cc1` (centres undefined), the IC50 was at most 1 µM.
The result for `O=C(Cc1ccc(OCc2ccc(F)cc2)cc1)NC1(C(=O)O)Cc2ccc(-c3ccc(Cl)cc3)cc2C1` (centres undefined) reads at most 1 µM.
`Cc1c(C(=O)N[C@H](C(=O)O)c2ccc(OCc3ccccc3)cc2)oc2cc(-c3ccc(Cl)cc3)ccc12`: the IC50 was at most 1 µM.
For `O=C(Cc1ccc(OCc2ccc(F)cc2)cc1)NC1(C(=O)O)Cc2ccc(-c3cccc(Cl)c3)cc2C1` (centres undefined), the IC50 was at most 1 µM.
Turning to `Nc1ccccc1COc1ccc(CC(=O)NC2(C(=O)O)Cc3ccc(-c4ccc(Cl)cc4)cc3C2)cc1` (centres undefined), the IC50 is at most 1 µM.
As to `Nc1c(C(=O)NC(Cc2ccc(OCc3ccccc3)cc2)C(=O)O)oc2ccc(-c3ccc(Cl)cc3)cc12` (centres undefined), the IC50 is at most 1 µM.
For `O=C(NC(Cc1ccc(OCc2cccc(F)c2)cc1)C(=O)O)c1cn2cc(-c3ccc(Cl)cc3)ccc2n1` (centres undefined), the IC50 was at most 1 µM.
Take `O=C(N[C@@H](Cc1ccc(OCc2ccsc2)cc1)C(=O)O)c1cn2cc(-c3ccc(Cl)cc3)ccc2n1`: the IC50 was at most 1 µM.
For the compound `O=C(O)C1(NS(=O)(=O)Cc2ccc(F)cc2)Cc2ccc(-c3ccc(Cl)cc3)cc2C1` (centres undefined), the 50% inhibitory concentration (IC50) is at most 1 µM.
As to `O=C(NC(Cc1ccc(OCc2ccccc2F)cc1)C(=O)O)c1cn2cc(-c3ccc(Cl)cc3)ccc2n1` (centres undefined), the IC50 is at most 1 µM.
With `O=C(Cc1ccc(OCc2ccc(F)cc2)cc1)NC1(C(=O)O)Cc2ccc(-c3ccc(Cl)s3)cc2C1` (centres undefined), the half-maximal inhibitory concentration (IC50) is at most 1 µM.
On to `Cc1c(C(=O)N[C@@H](Cc2ccc(OCc3ccoc3)cc2)C(=O)O)oc2cc(-c3ccc(Cl)cc3)ccc12`, for which the IC50 was at most 1 µM.
For the compound `O=C(Cc1ccc(OCc2ccc(F)cc2)cc1)NC1(C(=O)O)Cc2ccc(-c3ccccc3Cl)cc2C1` (centres undefined), the IC50 is at most 1 µM.
For the compound `O=C(Cc1ccc(OC2Cc3ccccc3C2)cc1)NC1(C(=O)O)Cc2ccc(-c3ccc(Cl)cc3)cc2C1` (centres undefined), the IC50 was at most 1 µM.
As for `O=C(Cc1ccc(OCc2ccsc2)cc1)NC1(C(=O)O)Cc2ccc(-c3ccc(Cl)cc3)cc2C1` (centres undefined), the 50% inhibitory concentration (IC50) was at most 1 µM.
On to `O=C(N[C@@H](Cc1ccc(OCc2ccccc2)cc1)C(=O)O)c1cn2ccc(-c3ccc(Cl)cc3)cc2n1`, for which the IC50 is at most 1 µM.
